C[C@@H]1CC[C@@]2(OC1)O[C@H]1C[C@H]3[C@@H]4CC=C5C[C@@H](O)CC[C@]5(C)[C@H]4CC[C@]3(C)[C@H]1[C@@H]2C
Details	solubility (mole fraction)
in acetone, 295.15 K	0.000904
in acetone, 302.15 K	0.00115
in acetone, 304.65 K	0.00127
in acetone, 308.15 K	0.0014
in acetone, 310.15 K	0.00149
in acetone, 312.15 K	0.00159
in acetone, 313.65 K	0.0017
in acetone, 315.65 K	0.00184
in acetone, 317.15 K	0.00194
in acetone, 319.15 K	0.00204
in acetone, 321.15 K	0.00217
in acetone, 322.65 K	0.0023
in acetone, 324.65 K	0.00243
in acetone, 326.65 K	0.00256
in acetone, 327.65 K	0.00267
in acetone, 329.15 K	0.00279
in acetone, 330.15 K	0.00292
in acetone, 332.15 K	0.00303
in ethanol, 299.15 K	0.00133
in ethanol, 303.15 K	0.00144
in ethanol, 306.15 K	0.00153
in ethanol, 308.65 K	0.00161
in ethanol, 311.65 K	0.00169
in ethanol, 313.65 K	0.00175
in ethanol, 315.65 K	0.00184
in ethanol, 317.15 K	0.00193
in ethanol, 319.15 K	0.002
in ethanol, 320.65 K	0.00208
in ethanol, 322.65 K	0.00215
in ethanol, 324.15 K	0.00224
in ethanol, 326.15 K	0.00233
in ethanol, 327.65 K	0.00241
in ethanol, 328.65 K	0.00249
in ethanol, 329.65 K	0.00258
in ethanol, 330.65 K	0.00268
in ethanol, 331.65 K	0.00276
in ethanol, 332.65 K	0.00284
in ethyl acetate, 300.65 K	0.0024
in ethyl acetate, 302.15 K	0.00258
in ethyl acetate, 303.15 K	0.00276
in ethyl acetate, 303.65 K	0.00294
in ethyl acetate, 305.15 K	0.00317
in ethyl acetate, 307.15 K	0.00338
in ethyl acetate, 308.65 K	0.0036
in ethyl acetate, 310.65 K	0.00383
in ethyl acetate, 311.65 K	0.00402
in ethyl acetate, 313.65 K	0.00423
in ethyl acetate, 315.65 K	0.00447
in ethyl acetate, 316.65 K	0.00466
in ethyl acetate, 318.15 K	0.00492
in ethyl acetate, 320.15 K	0.00523
in ethyl acetate, 321.65 K	0.00545
in ethyl acetate, 323.15 K	0.00577
in ethyl acetate, 324.65 K	0.00602
in ethyl acetate, 326.65 K	0.00628
in ethyl acetate, 327.65 K	0.0065
in ethyl acetate, 328.95 K	0.00673
in isopropanol, 293.15 K	0.000835
in isopropanol, 296.65 K	0.000975
in isopropanol, 300.65 K	0.00111
in isopropanol, 303.15 K	0.00123
in isopropanol, 304.65 K	0.00134
in isopropanol, 306.65 K	0.00145
in isopropanol, 308.65 K	0.00157
in isopropanol, 311.15 K	0.00167
in isopropanol, 314.65 K	0.00178
in isopropanol, 317.15 K	0.00192
in isopropanol, 319.15 K	0.00203
in isopropanol, 321.15 K	0.00216
in isopropanol, 324.65 K	0.0023
in isopropanol, 326.15 K	0.00241
in isopropanol, 328.15 K	0.00253
in isopropanol, 330.15 K	0.00267
in isopropanol, 332.15 K	0.00282
in methanol, 291.15 K	0.000187
in methanol, 298.15 K	0.000257
in methanol, 300.15 K	0.000325
in methanol, 308.15 K	0.000401
in methanol, 312.65 K	0.000469
in methanol, 315.15 K	0.00051
in methanol, 317.65 K	0.000556
in methanol, 319.65 K	0.0006
in methanol, 322.15 K	0.000643
in methanol, 323.65 K	0.000694
in methanol, 325.65 K	0.000743
in methanol, 327.15 K	0.000795
in methanol, 328.15 K	0.000847
in methanol, 329.15 K	0.00091
in methanol, 331.65 K	0.000994
in n-propyl acetate, 296.15 K	0.0021
in n-propyl acetate, 300.15 K	0.00263
in n-propyl acetate, 306.65 K	0.00313
in n-propyl acetate, 307.15 K	0.00321
in n-propyl acetate, 310.15 K	0.00356
in n-propyl acetate, 314.65 K	0.00402
in n-propyl acetate, 317.65 K	0.00442
in n-propyl acetate, 319.65 K	0.0047
in n-propyl acetate, 322.15 K	0.00495
in n-propyl acetate, 323.65 K	0.0053
in n-propyl acetate, 325.15 K	0.00543
in n-propyl acetate, 327.15 K	0.00575
in n-propyl acetate, 328.65 K	0.00616
in n-propyl acetate, 329.15 K	0.00612
